From paper PMC5053481, “Structural Insights into the Methylation of C1402 in 16S rRNA by Methyltransferase RsmI” (PLoS ONE, 2016)

Experiments:
RsmI (full-length) [1] = target: RsmI (full-length) (Escherichia coli, UniProt P67087); test: isothermal titration calorimetry, one-site model; format: binding; conditions: read-out: Ka (10^4/M) (converted)
RsmI (full-length) [2] = target: RsmI (full-length) (Escherichia coli, UniProt P67087, F144A); test: isothermal titration calorimetry, one-site model; format: binding; conditions: read-out: Ka (10^4/M) (converted)
Sequence of RsmI (full-length) (Escherichia coli, UniProt P67087, F144A) (P67087 whole entry F144A): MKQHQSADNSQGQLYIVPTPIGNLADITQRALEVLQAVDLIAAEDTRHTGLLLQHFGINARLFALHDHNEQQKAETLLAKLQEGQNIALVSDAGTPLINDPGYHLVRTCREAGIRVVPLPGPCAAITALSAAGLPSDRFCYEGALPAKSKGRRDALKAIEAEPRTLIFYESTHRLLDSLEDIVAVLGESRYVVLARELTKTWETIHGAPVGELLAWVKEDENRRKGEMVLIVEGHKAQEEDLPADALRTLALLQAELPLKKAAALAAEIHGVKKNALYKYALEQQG

RsmI (full-length) [3] = target: RsmI (full-length) (Escherichia coli, UniProt P67087, Y169A); test: isothermal titration calorimetry, one-site model; format: binding; conditions: read-out: Ka (10^4/M) (converted)
Sequence of RsmI (full-length) (Escherichia coli, UniProt P67087, Y169A) (P67087 whole entry Y169A): as the sequence (P67087 whole entry F144A) above, with A144F, Y169A counted along it

RsmI (G12-P258) = RsmI (G12-P258) (Escherichia coli, UniProt P67087); test: X-ray crystal structure, […] Å; format: binding; conditions: co-crystallised, AdoMet:RsmI 5:1; site between NTD and CTD
[4] = target: the molecule itself; test: SEC; gel filtration on Superdex 200 10/300 GL; purified RsmI (Gly12-Pro258) eluted at 15.0 ml, compared with protein standards

Sequence of RsmI (full-length) (Escherichia coli, UniProt P67087) (P67087 whole entry): as the sequence (P67087 whole entry F144A) above, with A144F counted along it

| Kd (RsmI (full-length) [1]) | Kd (RsmI (full-length) [2]) | Kd (RsmI (full-length) [3]) | Molecule | X-ray crystal structure, 2.20 Å (RsmI (G12-P258)) | stoichiometry N [4] |
| --- | --- | --- | --- | --- | --- |
| 23.3 µM | 67.6 µM | 24.2 µM | C[S+](CC[C@H](N)C(=O)O)C[C@H]1O[C@@H](n2cnc3c(N)ncnc32)[C@H](O)[C@@H]1O (some centres unmarked) [AdoMet] | coordinate and structure factor of RsmI-AdoMet complex have been deposited with the RCSB PDB | – |
| – | – | – | RsmI truncation Gly12-Pro258 (E. coli 16S rRNA 2'-O-methyltransferase RsmI) (domain or fragment, Escherichia coli, UniProt P67087 12-258, looked up, RsmI, AdoMet-dependent methyltransferase for 2'-O-methylation of C1402 in 16S rRNA, Escherichia coli, residues Gly12-Pro258; It was co-crystallised with the cofactor AdoMet; The asymmetric unit holds three molecules: one non-crystallographic dimer and one half of a crystallographic dimer; also called RmsI; RsmI (G12-P258); source: expressed and purified as reported previously [15]) GQLYIVPTPIGNLADITQRALEVLQAVDLIAAEDTRHTGLLLQHFGINARLFALHDHNEQQKAETLLAKLQEGQNIALVSDAGTPLINDPGYHLVRTCREAGIRVVPLPGPCAAITALSAAGLPSDRFCYEGFLPAKSKGRRDALKAIEAEPRTLIFYESTHRLLDSLEDIVAVLGESRYVVLARELTKTWETIHGAPVGELLAWVKEDENRRKGEMVLIVEGHKAQEEDLPADALRTLALLQAELP | – | 2 |
